The values that follow come from patent publication EP0153538A1, “Derivatives of melilotic acid, and medicaments containing them” (Laboratoire Marcel Richard Société anonyme dite, priority 1984, dated 1985).

Like-named read-outs stand apart in the source and are kept apart here.

One data set can be described thus: Solubility (qualitative). It counts as physicochemical. The protocol:
Plus particulièrement, l'acide fluoro-5 acétyl mélilotique se présente sous la forme d'une poudre cristalline blanche, peu soluble dans l'eau, mais soluble dans l'alcool, l'acétone et dans les solvants organiques usuels. Son point de fusion est de 96-98°C.
12 g d'acide fluoro-5 acétoxy-2 cinnamique sont dissous dans 120cm3 acétate d'éthyle avec 1,5 g de palladium sur charbon à 10 % et hydro- gènés dans l'appareil de Parr sous 5 atmosphères d'hydrogène pendant 1 heure; on filtre et concentre sous vide pour obtenir un résidu cristallisé d'acide fluoro-5 acétylmélilotique pur peu soluble dans l'eau, soluble dans l'alcool, l'acétone et les solvants organiques usuels.

A short description of data set [1]: Acute toxicity in male SWISS mice. As to conditions: mouse, in vivo, souris mâle SWISS, read-out: toxicité (converted). The protocol:
Sa toxicité est de 1 500 mg/Kg par voie orale et de 750 mg/Kg par voie intrapéritonéale, déterminée sur la souris mâle-de la souche SWISS.

The test system of data set [2] is agrégation plaquettaire provoquée par l'ADP. Put plainly: Inhibition of ADP-induced platelet aggregation, human blood. It counts as cell-based. As to conditions: sang humain, 100 mg/Kg. How it is done:
(§1) Ce produit inhibe l'agrégation plaquettaire provoquée par l'ADP (adénosine diphosphate) : • sur le sang humain, inhibition de 40 % à 100 mg/Kg, sur le rat et le lapin, inhibition de 60 Z à 100 mg/Kg.

For data set [3] the test system is unchanged. Description: Inhibition of ADP-induced platelet aggregation, rat. It counts as in vivo. To be noted: 100 mg/Kg. The protocol:
as §1

The test system is the same in data set [4]. Description: Inhibition of ADP-induced platelet aggregation, rabbit. It counts as in vivo. As to conditions: lapin, 100 mg/Kg. The protocol: as §1
Another data set relates to rat anesthésié. Put plainly: Blood pressure in the anaesthetised rat after IV administration. It counts as in vivo. To be noted: rat anesthésié à l'éthylméthane, IV 100 mg/Kg. The protocol: Sur le rat anesthésié à l'éthylméthane,on enregistre après administration IV. de 100 mg/Kg de produit selon l'invention une légère hypotension, soit une baisse de 15 %.
A further data set deals with chien anesthésié. Put plainly: Cardiovascular and respiratory effects in the pentobarbital-anaesthetised dog after IV injection. It counts as in vivo. To be noted: chien anesthésié au Pentobarbital, IV 50 mg/Kg.
The test system of data set [5] is souris. Put plainly: Phenylbenzoquinone test (analgesia) in mice. It counts as in vivo. To be noted: test à la phénylbenzoquinone, 500 mg/Kg. The protocol: (§2) En ce qui concerne l'activité analgésique, le produit donne dans le test à la phénylbenzoquinone et dans le test à la plaque chauffante chez la souris une protection de 88 % à 500 mg/Kg.
In data set [6] the test system is souris. Description: Hot plate test (analgesia) in mice. It counts as in vivo. To be noted: test à la plaque chauffante, 500 mg/Kg. How it is done:
as §2
In general terms: Hot-plate and tail-flick tests time the reaction to a heat stimulus.

Data set [7] deals with artériopathies périphériques, oedème de la cheville, varices. Description: Therapeutic application (peripheral arteriopathies, ankle oedema, varices). It counts as in vivo.

In the case of `CC(=O)Oc1ccc(F)cc1CCC(=O)O` [acide fluoro-5 acétyl mélilotique], in “Solubility (qualitative)” (alcool, acétone, solvants organiques usuels), the “solubilité dans l'alcool, l'acétone et les solvants organiques usuels” value is recorded as “soluble”. In addition, the “solubilité dans l'eau” value in the data set “Solubility (qualitative)” (eau) is on record as “peu soluble”. Further, the LD50 in [1] (ip, voie intrapéritonéale) was 750 mg/kg; in [1] (po, voie orale) it was 1500 mg/kg. Further, the “inhibition de l'agrégation plaquettaire provoquée par l'ADP” value stood at 40% in data set [2], 60% in data set [3] and 60% in data set [4]. The “hypotension (baisse)” value in the data set with rat anesthésié came out at 15%. Further, the “augmentation du débit” value in the data set on chien anesthésié stood at 65%. Further, in the data set on chien anesthésié, the battements result was “renforcement”. The “diminution du rythme respiratoire” value in the data set on chien anesthésié was determined as 25%. Besides, the fréquence cardiaque result in the data set with chien anesthésié is recorded as “sans modification”. The hypotension in the data set with chien anesthésié is 7%. Also, the protection in the data set on souris [5] and in the data set with souris [6] was 88% in each case. Further, the “application thérapeutique” value in [7] is “résultats favorables”.
